Tests used:
[1] = target: T1, extracellular domain human GC-A recombinant protein (Homo sapiens, UniProt P16066); experiment: SPR GC-A binding studies (Example 7); settings: Compound 19 alone, His-tagged GC-A on Ni-NTA chip
T1 construct: extracellular domain human GC-A recombinant protein; purchased MyBioSource, Inc
T1 sequence (P16066 33-473 limits assumed): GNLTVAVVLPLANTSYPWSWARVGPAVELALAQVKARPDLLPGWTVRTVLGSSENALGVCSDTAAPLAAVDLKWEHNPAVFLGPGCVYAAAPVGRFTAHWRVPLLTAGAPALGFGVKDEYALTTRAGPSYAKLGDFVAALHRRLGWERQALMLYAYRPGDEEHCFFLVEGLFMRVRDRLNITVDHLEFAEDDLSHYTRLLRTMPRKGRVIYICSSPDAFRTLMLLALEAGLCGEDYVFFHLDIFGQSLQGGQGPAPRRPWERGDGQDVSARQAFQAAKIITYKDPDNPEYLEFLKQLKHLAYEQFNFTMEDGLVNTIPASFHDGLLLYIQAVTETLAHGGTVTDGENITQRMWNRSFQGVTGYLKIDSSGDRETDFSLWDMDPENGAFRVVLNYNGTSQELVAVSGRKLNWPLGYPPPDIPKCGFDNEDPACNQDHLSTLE
Method: Methods (GC-A Binding Studies): Surface plasmon resonance (SPR) measurements were performed at 25° C. on a BI-4500 SPR instrument (Biosensing Instrument Inc. Tempe AZ). […] Data was collected as sensorgrams. Binding kinetics were derived from sensorgrams using BI-Data Analysis Program (Biosensing Instrument, Tempe Ariz.).

LogD = type: physicochemical; settings: pH 7.4
[2] = tested on: primary human adipocytes (HAs; visceral and subcutaneous); experiment: cGMP generation in primary human adipocytes (visceral and subcutaneous); type: cell-based
[3] = pharmacokinetics after IV and PO dosing; type: in vivo, mouse; settings: plasma
[4] = hepatic microsomal stability, mouse; type: in vitro ADME
[5] = target: T2, extracellular domain of human pGC-A (Homo sapiens, UniProt P16066); experiment: SPR binding of compound 19 to pGC-A extracellular domain (Example 5)
T2 construct: the extracellular domain of human pGC-A was used
T2 sequence (P16066 33-473 limits assumed): T1 sequence (P16066 33-473 limits assumed)
Method: Binding Studies of compound 19 to Human pGC-A Receptor: Surface plasmon resonance (SPR) binding analysis was performed by employing the highly sensitive Biosensing Instrument 4500 system for small molecule binding. For these studies the extracellular domain of human pGC-A was used together with compound 19 at increasing concentrations.

human GC-A = target: T3, human GC-A (Homo sapiens, UniProt P16066); experiment: ex vivo cGMP generation in HEK293 GC-A cells incubated with human plasma; type: cell-based
T3 construct: expressed in transfected cells; host or cells: HEK293
T3 sequence (P16066 33-1061): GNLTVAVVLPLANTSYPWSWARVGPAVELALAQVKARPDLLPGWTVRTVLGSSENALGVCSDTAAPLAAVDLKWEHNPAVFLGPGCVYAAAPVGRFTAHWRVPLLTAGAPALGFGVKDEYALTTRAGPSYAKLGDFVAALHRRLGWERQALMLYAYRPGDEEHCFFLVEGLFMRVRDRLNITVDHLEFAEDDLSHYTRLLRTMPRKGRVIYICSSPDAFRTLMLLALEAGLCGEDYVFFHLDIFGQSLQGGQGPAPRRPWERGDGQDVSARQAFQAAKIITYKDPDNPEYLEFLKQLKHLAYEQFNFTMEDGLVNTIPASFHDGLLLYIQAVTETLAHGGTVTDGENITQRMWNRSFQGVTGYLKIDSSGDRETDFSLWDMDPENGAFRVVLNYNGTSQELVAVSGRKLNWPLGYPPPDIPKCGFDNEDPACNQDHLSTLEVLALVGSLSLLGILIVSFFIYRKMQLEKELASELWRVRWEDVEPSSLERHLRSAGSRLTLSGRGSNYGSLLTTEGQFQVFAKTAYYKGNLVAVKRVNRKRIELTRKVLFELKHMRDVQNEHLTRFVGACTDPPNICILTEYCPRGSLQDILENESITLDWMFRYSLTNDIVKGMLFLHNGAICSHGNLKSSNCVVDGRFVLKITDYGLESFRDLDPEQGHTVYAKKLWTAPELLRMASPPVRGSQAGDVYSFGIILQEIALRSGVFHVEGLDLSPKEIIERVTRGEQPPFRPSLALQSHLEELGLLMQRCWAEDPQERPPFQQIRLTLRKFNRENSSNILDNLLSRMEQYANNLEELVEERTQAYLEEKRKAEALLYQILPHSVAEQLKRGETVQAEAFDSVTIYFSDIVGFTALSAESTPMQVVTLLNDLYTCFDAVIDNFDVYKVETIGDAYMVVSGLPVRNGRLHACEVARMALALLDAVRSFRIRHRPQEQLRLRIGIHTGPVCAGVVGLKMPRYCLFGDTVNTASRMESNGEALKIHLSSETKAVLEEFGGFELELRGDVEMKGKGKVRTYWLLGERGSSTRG
T3 sequence (P01160 124-151 partner limits assumed): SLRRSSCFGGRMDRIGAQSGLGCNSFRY
Method: Methods: Stored human plasma samples from normal subjects and patients with hypertension and HF were utilized. The details of the recruitment of these participants are previously reported. All participants gave written informed consent and the Institutional Review Board (IRB) at Mayo Clinic approved this study. […] HEK293 overexpressing human GC-A were cultured and grown as described above. Cells were grown in 48-well plates to 80-90% confluence. On the day of the experiment, cells were pre-incubated with Compound 19 at doses of 1, 5 or 10 μM and without (Veh) in 250 μL treatment buffer for 5 min at 37° C. 25 μL of human plasma was then added and incubated for additional 10 min. After, cells were washed with PBS once, lysed with 0.1M HCl and intracellular cGMP levels were measured in the lysate using a commercial cGMP ELISA kit (Enzo Life Sciences, Farmingdale, N.Y.) as instructed by the manufacturer.

Kd [1]: 0.39 µM
logD (LogD): 3.04
clearance ([3]; Mean IV, mouse, 5 mg/kg): 20.3 mL/min/kg
Vd ([3]; Mean IV, mouse, 5 mg/kg, read-out: Vdss): 16.8 L/kg
Cmax ([3]; Mean PO, Mouse, 10 mg/kg): 605 ng/mL
half-life ([3]; Mean PO, Mouse, 10 mg/kg): 9.13 h
AUC ([3]; Mean PO, Mouse, 10 mg/kg, read-out: Exposure (AUC)): 7100 ng·h/mL
bioavailability ([3]; Mouse, PO 10 mg/kg vs IV 5 mg/kg): 107%
Hepatic Microsomal Stability (% remaining at 1 h) [4]: 83.6%
binding to human pGC-A ([5]; Response (RU) increasing with concentration): clearly validated
Kd ([5]; compound 2.5 to 20 μM with 0.25 μM pGC-A receptor extracellular domain): 4.1 µM
cGMP potency by plasma cohort (human GC-A; HF plasma, highest circulating ANP and BNP): greatest cGMP potency
Structure (SMILES): CN(C)CCN1CCCC(C(=O)Nc2nc3c(F)cc(F)cc3s2)C1 (stereo not drawn) [Compound 19]
cGMP generation ([2]; HAs, 1, 5 and 10 μM compound in the presence of ANP (10^−10 M)): clear increase in cGMP generation
cGMP generation ([2]; HAs, compound alone at similar dose, no ANP): did not generate cGMP generation
generation of cGMP levels in HEK293 GC-A cells (human GC-A; 1, 5 or 10 μM with human plasma from normal, hypertension and HF cohorts): potentiated the generation of cGMP levels

Reference: patent publication US20230203025A1, “ENHANCERS OF PARTICULATE GUANYLYL CYCLASE RECEPTOR A” (Mayo Foundation for Medical Education and Research, priority 2020, published 2023)
